These results are taken from publication PMC9125976, “Cyanoacetohydrazide linked to 1,2,3-triazole derivatives: a new class of α-glucosidase inhibitors” (Scientific Reports, 2022).

Assay [1] deals with T1, α-glucosidase (Saccharomyces cerevisiae, UniProt P53341).
T1 construct: purchased Sigma-Aldrich
The assay can be described thus: Enzyme kinetic studies (Lineweaver–Burk plot). To be noted: for Ki: p-NPG 2–16 mM. In kind it is biochemical. The source says: A Lineweaver–Burk plot was generated to identify the type of inhibition and the Michaelis–Menten constant.

For assay [2], the target named is T1, α-glucosidase. In words: Thermodynamic analysis (thermal denaturation followed by fluorescence). Here is the method:
Thermodynamic analysis was performed as described by Mojtabavi et al., the fluorescent intensity data were plotted as a function of temperature, and the thermodynamic profile was computed[48],[49]. Therefore, the denatured fraction (FD) of protein was calculated from Eq. (2), assuming a two-state mechanism for the protein denaturation:2 FD=YN-Yobs/YN-YD.
In Eq. (2), Yobs, YN, and YD are the observed […] characteristics of a fully native and denatured conformation, respectively. Equation (3) was used to calculate the apparent equilibrium constant (K) for a reversible denaturation process between native and denatured protein states:3 K=FD/1-FD=Yobs-YD/YN-YD.
The standard Gibbs free energy change (ΔG°) for protein denaturation is given by the Eq. (4):4 ΔG^^∘=GD^∘-GN^∘=-RTlnK, where T and R are the absolute temperature and the universal gas constant, respectively. The Gibbs free energy (ΔG°) is the most valuable standard of protein conformational stability in thermal denaturation. The integrated Gibbs–Helmholtz equation was utilized for measuring changes in the Gibbs energy of a system as a function of temperature (Eq. (5)):5 ΔG^^∘=ΔHm^∘1-T/Tm-ΔCpTm-T+TLnT/Tm, where ΔCp is the heat capacity of protein denaturation. The ΔCp (11.6 kJ/mol K) of the α-glucosidase denaturation was taken from van der Kamp et al. report. In thermal denaturation, Tm is the temperature at which the protein is half denatured. ΔH°m and ΔS°m are the standard enthalpy and entropy of denaturation. The standard entropy was calculated from a relation between the standard […] of denaturation as bellow: ΔH=TmΔS.

Assay [3] concerns the target T2, α-Glucosidase (Saccharomyces cerevisiae, EC3.2.1.20) (Saccharomyces cerevisiae, UniProt P53341).
T2 construct: purchased Sigma-Aldrich
The assay can be described thus: In vitro α-glucosidase inhibition assay. In kind it is biochemical. The procedure:
α-Glucosidase (Saccharomyces cerevisiae, EC3.2.1.20, 20 U/mg) and the substrate, […] (p-NPG) were purchased from Sigma-Aldrich and the assay was performed exactly according to our previous report. In this respect, various concentrations of each synthesized compound dissolved in DMSO, were added to potassium phosphate buffer (50 mM, pH 6.8) including enzyme (at final concentration of 0.1 U/mL), in a 96-well plate. After a 10-min incubation at 37 °C, p-NPG was added to each well to achieve final concentration of 4 mM. Then, the plate was re-incubated at 37 °C for 20 min. It should be noted that the final concentration of DMSO in each enzymatic solution was 10%. Finally, the change in the absorbance was measured at 405 nm using spectrophotometer (Synergy HTX Multi-Mode Microplate Reader–BioTek, Germany). […] The percentage of inhibition for compounds and control was calculated using Eq. (1):1 Inhibition%=ODnegative control-ODsample/ODnegative control×100OD=optical density at 405 nm.
IC50 values were calculated from the nonlinear regression curve using the Logit method.

Assay [4] has as its target T1, α-glucosidase. The assay can be described thus: Fluorescence spectroscopy measurements. To be noted: 9e 0–1.0 μM, excitation 280 nm, emission maximum 340 nm, phosphate buffer 50 mM pH 6.8. In kind it is binding. The procedure: Compound 9e at different concentrations (0–1.0 µM) was added into the 3 mL solution containing a fixed amount of α-glucosidase (0.1 U/mL). All mixtures were held for 10 min to equilibrate before measurements. Then, the fluorescence emission spectra were measured from 300 to 450 nm at the excitation wavelength of 280 nm on a Synergy HTX multi-mode reader (Biotek Instruments, Winooski, VT, USA) equipped with a 1.0 cm quartz cell holder. The fluorescence spectra of the buffer containing compound 9e in the absence of the enzyme were subtracted as the background fluorescence.

In assay [5] the target is T1, α-glucosidase. As to conditions: cited from earlier work.

“Also recorded” adds a separate entry of the source.

T2 sequence (P53341 whole entry): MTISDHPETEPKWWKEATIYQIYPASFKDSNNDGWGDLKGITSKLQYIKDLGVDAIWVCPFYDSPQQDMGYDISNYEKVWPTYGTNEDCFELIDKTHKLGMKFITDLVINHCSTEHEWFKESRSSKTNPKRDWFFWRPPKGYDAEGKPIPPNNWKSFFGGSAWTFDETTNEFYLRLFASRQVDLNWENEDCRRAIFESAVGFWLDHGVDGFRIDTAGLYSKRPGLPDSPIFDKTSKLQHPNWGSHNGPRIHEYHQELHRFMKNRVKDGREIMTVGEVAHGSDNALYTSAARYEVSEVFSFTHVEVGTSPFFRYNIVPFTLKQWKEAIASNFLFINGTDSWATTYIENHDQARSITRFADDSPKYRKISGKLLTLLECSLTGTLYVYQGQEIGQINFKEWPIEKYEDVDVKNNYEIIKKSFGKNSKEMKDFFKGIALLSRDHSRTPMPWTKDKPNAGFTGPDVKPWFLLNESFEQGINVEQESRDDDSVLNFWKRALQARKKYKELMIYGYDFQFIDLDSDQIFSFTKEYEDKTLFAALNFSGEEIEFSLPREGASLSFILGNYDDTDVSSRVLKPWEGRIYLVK
T1 sequence (P53341 whole entry): as above

Take `COc1cc(C=NNC(=O)CC#N)ccc1OCc1cn(Cc2ccc(Cl)cc2)nn1` [Compound 9e, N′-(4-((1-(4-chlorobenzyl)-1H-1,2,3-triazol-4-yl)methoxy)-3-methoxybenzylidene)-2-cyanoacetohydrazide]: in assay [1], the type of inhibition result is listed as “uncompetitive inhibition; also recorded: uncompetitively” and the Ki was 0.24 µM. For the same compound, in assay [2] (compound 9e 0.25 µM), the “Tm of α-glucosidase” value worked out at 316 K, the “ΔHm° of α-glucosidase denaturation” value was 22.58 kcal/mol and the “ΔSm° of α-glucosidase denaturation” value stood at 298.95 J mol^−1 K^−1. Moreover, in assay [2] (compound 9e 0.50 µM), the “Tm of α-glucosidase” value was found to be 315 K, the “ΔHm° of α-glucosidase denaturation” value came out at 26.974 kcal/mol and the “ΔSm° of α-glucosidase denaturation” value was found to be 358.28 J mol^−1 K^−1. Besides, in assay [2] (compound 9e 0.75 µM), the “Tm of α-glucosidase” value amounted to 313 K, the “ΔHm° of α-glucosidase denaturation” value came out at 42.326 kcal/mol and the “ΔSm° of α-glucosidase denaturation” value is 565.76 J mol^−1 K^−1. Besides, in assay [2] (compound 9e 1.0 µM), the “Tm of α-glucosidase” value was found to be 311 K, the “ΔHm° of α-glucosidase denaturation” value worked out at 142.81 kcal/mol and the “ΔSm° of α-glucosidase denaturation” value is 1921.22 J mol^−1 K^−1. In assay [3], the IC50 came out at 1 ± 0.01 µM and the “fold better potency than the standard drug acarbose” value is 754 fold. Also, in assay [4], the “change of α-glucosidase fluorescence” value is “significant increase in fluorescence intensity”.
With `COc1cc(C=NNC(=O)CC#N)ccc1OCc1cn(Cc2ccccc2C)nn1` [Compound 9f, 2-Cyano-N′-(3-methoxy-4-((1-(2-methylbenzyl)-1H-1,2,3-triazol-4-yl)methoxy)benzylidene)acetohydrazide], the IC50 in assay [3] turned out to be 28 ± 0.1 µM.
On the same count and under the same terms, next, `Cc1ccc(Cn2cc(COc3ccc(C=NNC(=O)CC#N)cc3)nn2)cc1` [Compound 9n, 2-Cyano-N′-(4-((1-(4-methylbenzyl)-1H-1,2,3-triazol-4-yl)methoxy)benzylidene)acetohydrazide]: 82.4 ± 1.3 µM.
As for `COc1cc(C=NNC(=O)CC#N)ccc1OCc1cn(Cc2ccccc2F)nn1` [Compound 9b, 2-Cyano-N′-(4-((1-(2-fluorobenzyl)-1H-1,2,3-triazol-4-yl)methoxy)-3-methoxybenzylidene)acetohydrazide], in assay [1], the type of inhibition result is “uncompetitive inhibition; also recorded: uncompetitively” and the Ki was 0.43 µM. In addition, the IC50 in assay [3] is 1.5 ± 0.01 µM.
Regarding `Cc1ccccc1Cn1cc(COc2ccc(C=NNC(=O)CC#N)cc2)nn1` [Compound 9m, 2-Cyano-N′-(4-((1-(2-methylbenzyl)-1H-1,2,3-triazol-4-yl)methoxy)benzylidene)acetohydrazide], the IC50 in assay [3] worked out at 11.3 ± 0.2 µM.
Take `COc1cc(C=NNC(=O)CC#N)ccc1OCc1cn(Cc2ccc(F)cc2)nn1` [Compound 9c, 2-Cyano-N′-(4-((1-(4-fluorobenzyl)-1H-1,2,3-triazol-4-yl)methoxy)-3-methoxybenzylidene)acetohydrazide]: the IC50 in assay [3] was 9.73 ± 0.3 µM.
Still for that read-out and setting: next, `COc1cc(C=NNC(=O)CC#N)ccc1OCc1cn(Cc2ccccc2)nn1` [Compound 9a, N′-(4-((1-benzyl-1H-1,2,3-triazol-4-yl)methoxy)-3-methoxybenzylidene)-2-cyanoacetohydrazide]: above 750 µM.
Take `CCc1ccc(NC(=O)Cn2cc(COc3ccc(-c4nc5ccccc5[nH]4)cc3)nn2)cc1` [B]: the mode of inhibition result in assay [5] was “competitive”.
For the compound `O=c1oc2ccccc2c(O)c1C(c1ccc(OCc2cn(Cc3ccccc3Cl)nn2)cc1)c1c(O)c2ccccc2oc1=O` [Compound A], the mode of inhibition result in assay [5] is recorded as “competitive”.
In the case of `N#CCC(=O)NN=Cc1ccc(OCc2cn(Cc3ccc(F)cc3)nn2)cc1` [Compound 9j, 2-Cyano-N′-(4-((1-(4-fluorobenzyl)-1H-1,2,3-triazol-4-yl)methoxy)benzylidene)acetohydrazide], the IC50 in assay [3] stood at 56.6 ± 0.7 µM.
Take `N#CCC(=O)NN=Cc1ccc(OCc2cn(Cc3ccccc3Cl)nn2)cc1` [Compound 9k, N′-(4-((1-(2-chlorobenzyl)-1H-1,2,3-triazol-4-yl)methoxy)benzylidene)-2-cyanoacetohydrazide]: in assay [3], the IC50 came out at 74.7 ± 2.8 µM.
With `COc1cc(C=NNC(=O)CC#N)ccc1OCc1cn(Cc2ccc(C)cc2)nn1` [Compound 9g, 2-Cyano-N′-(3-methoxy-4-((1-(4-methylbenzyl)-1H-1,2,3-triazol-4-yl)methoxy)benzylidene)acetohydrazide], in assay [3], the IC50 stood at 22.8 ± 0.6 µM.
On to `N#CCC(=O)NN=Cc1ccc(OCc2cn(Cc3ccccc3)nn2)cc1` [Compound 9h, N′-(4-((1-benzyl-1H-1,2,3-triazol-4-yl)methoxy)benzylidene)-2-cyanoacetohydrazide], for which the 50% inhibitory concentration (IC50) in assay [3] is 271.2 ± 0.3 µM.
Regarding `O=C1Nc2ccccc2/C1=N/N=C/c1ccc(OCc2cn(Cc3ccccc3F)nn2)cc1` [Compound C], the “fold improvement in the inhibitory activity compared to acarbose” value in assay [5] is recorded as 46 fold.
For the compound `COc1cc(C=NNC(=O)CC#N)ccc1OCc1cn(Cc2ccccc2Cl)nn1` [Compound 9d, N′-(4-((1-(2-chlorobenzyl)-1H-1,2,3-triazol-4-yl)methoxy)-3-methoxybenzylidene)-2-cyanoacetohydrazide], the IC50 in assay [3] is 14 ± 0.8 µM.
As to `N#CCC(=O)NN=Cc1ccc(OCc2cn(Cc3ccc(Cl)cc3)nn2)cc1` [Compound 9l, N′-(4-((1-(4-chlorobenzyl)-1H-1,2,3-triazol-4-yl)methoxy)benzylidene)-2-cyanoacetohydrazide], in assay [1], the type of inhibition result is recorded as “competitive inhibition” and affinity was put at a Ki of 85 µM. In addition, the 50% inhibitory concentration (IC50) in assay [3] turned out to be 21.66 ± 0.12 µM.
The corresponding values for `N#CCC(=O)NN=Cc1ccc(OCc2cn(Cc3ccccc3F)nn2)cc1` [Compound 9i, 2-Cyano-N′-(4-((1-(2-fluorobenzyl)-1H-1,2,3-triazol-4-yl)methoxy)benzylidene)acetohydrazide] are “competitive inhibition”, 75 µM and 45.89 ± 0.1 µM.
